The structures appear in SMILES notation.

This test deals with T1, Recombinant human renin (Homo sapiens, UniProt P00797).
T1 construct: isolate the active form (residues 67-406); made in house; host or cells: FreeStyle 293-F cells (transient expression of pcDNA3.1(+)/hREN)
T1 sequence (P00797 67-406): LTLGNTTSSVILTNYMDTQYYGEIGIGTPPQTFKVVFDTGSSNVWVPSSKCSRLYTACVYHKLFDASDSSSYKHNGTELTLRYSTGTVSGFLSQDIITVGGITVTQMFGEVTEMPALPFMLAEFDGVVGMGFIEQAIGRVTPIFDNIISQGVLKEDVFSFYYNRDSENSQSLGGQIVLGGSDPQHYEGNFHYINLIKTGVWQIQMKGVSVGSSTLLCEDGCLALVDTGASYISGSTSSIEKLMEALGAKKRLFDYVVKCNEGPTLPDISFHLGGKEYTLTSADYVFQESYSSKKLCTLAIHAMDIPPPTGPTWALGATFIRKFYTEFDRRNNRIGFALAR
The test is described as follows: In vitro enzymatic activity assay of Renin inhibitors (fluorescence, QXL520/HiLyteFluo488 peptide substrate). The test is classed as biochemical. To be noted: recombinant human renin 3 nM, 1 μM substrate, 37° C., pH 7.4; values given as ranges; read-out: IC50 of Exemplified Compounds Against Renin. The gist of the method:
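Recombinant human renin (active form, residues 67-406; 3 nM final) pre-incubated 10 min at 37 °C with compounds in Hepes buffer pH 7.4 with 0.1 mg/ml BSA (optionally plus 2% BSA), 5% DMSO. Reaction started with 1 μM FRET peptide substrate; fluorescence (ex 485/em 538 nm) change over 1 h at 37 °C versus vehicle gives % inhibition, and pIC50/IC50 come from curve fitting.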
In the case of `O=C(NC(c1ccccc1)c1ccccc1)N1CCNC[C@H]1Cc1ccccc1` [Example 10, (R)—N-Benzhydryl-2-benzylpiperazine-1-carboxamide], the IC50 is more than 50 µM.

For `COc1ccc(Oc2ccccc2CCC(=O)N2CCNC[C@H]2Cc2ccccc2)cc1` [Example 51, (R)-1-(2-benzylpiperazin-1-yl)-3-(2-(4-methoxyphenoxy)-phenyl)propan-1-one], the IC50 lay in the range of 0.5 to 5 µM.

Take `Cc1nc(-c2ccc(Cl)cc2)c(CCC(=O)N2CCNC[C@H]2Cc2ccccc2)o1` [Example 54, (R)-1-(2-benzylpiperazin-1-yl)-3-(4-(4-chlorophenyl)-2-methyloxazol-5-yl)propan-1-one]: the IC50 lay in the range of 5 to 50 µM. With `CC(=O)NCCc1ccccc1Cc1ccccc1CCC(=O)N1CCNC[C@H]1Cc1ccc(OCC(=O)NS(C)(=O)=O)cc1` [Example 91, (R)-2-(4-((1-(3-(2-(2-(2-acetamidoethyl)benzyl)phenyl)propanoyl)piperazin-2-yl)methyl)phenoxy)-N-(methylsulfonyl)acetamide], the IC50 is less than 0.5 µM. As for `COc1cc(CCC(=O)N2CCNC[C@H]2Cc2ccccc2)ccc1OC(C)=O` [Example 59, (R)-4-(3-(2-benzylpiperazin-1-yl)-3-oxopropyl)-2-methoxyphenyl acetate], the 50% inhibitory concentration (IC50) is more than 50 µM.

With `COC(=O)COc1ccc(C[C@@H]2CNCCN2C(=O)CCc2ccccc2Oc2ccccc2)cc1` [Example 69, (R)-methyl 2-(4-((1-(3-(2-phenoxyphenyl)propanoyl)piperazin-2-yl)methyl)phenoxy)acetate], the IC50 was in the range of 0.5 to 5 µM.

Values taken from patent publication US20100210635A1, “RENIN INHIBITORS” (Takeda Pharmaceutical Company Limited, priority 2006, published 2010).
